{
  "source": "patent US20050009772A1",
  "about": "“Methods and compositions for the treatment of glaucoma and other retinal diseases” (The Regents of the University of California, priority 2003, published 2005)",
  "key": {"retinal ganglion cells": {"test_system": "retinal ganglion cells", "test": "2DG administration in the animal model of glaucoma", "type": "in vivo", "details": "animal model of glaucoma employed herein", "method": "Lan et al., NeuroReport 14:2369-72 (2003). In the hands of the, present inventors, however, 2DG administration was ineffective in protecting retinal ganglion cells in the animal model of glaucoma employed herein. Thus, confirmation of efficacy in a relevant animal model is required before any actual conclusions can be drawn.\nRats were anesthetized with intramuscular injections of 0.8 ml/kg of the anesthetic cocktail described above. A previously published procedure was modified to produce chronic moderately elevated IOP unilaterally, while the untreated contralateral eye served as the comparative control.40 Animals were injected intracamerally with 10 μl of 35% India ink (Becton Dickinson, Cockeysville, Md.) in 0.01 M PBS after removing a similar volume of aqueous. At the end of the procedure, Tobrex ophthalmic ointment (tobramycin 0.3%; Alcon, Fort Worth, Tex.) was applied topically. Five days after intracameral injection of India ink, a dark band at the limbus was noted due to the aggregation of carbon particles in the trabecular meshwork.38 After anesthesia, approximately 200 laser burns were delivered ab externo to the pigmented trabecular band at laser settings of 200 μm diameter, 200 mW power and 0.2 seconds duration. Three weeks after the first laser treatment, another trabecular laser photocoagulation was performed without further injection of ink."}, "[1]": {"test_system": "retinal ganglion cells (RGCs)", "test": "Density of DTMR-labeled RGCs in rat glaucoma model (Experiment 2)", "type": "in vivo", "details": "retinas with IOP elevation, 5 weeks; quercetin = co-administered with GGA", "method": "GGA was then given twice a week at the same dose until euthanasia. Sustained elevation of intraocular pressure (IOP) was maintained by performing trabecular laser photocoagulation three weeks after the first photocoagulation. […] IOP and body weight were measured once a week. […] Rats were anesthetized with intramuscular injections of 0.8 ml/kg of the anesthetic cocktail described above. A previously published procedure was modified to produce chronic moderately elevated IOP unilaterally, while the untreated contralateral eye served as the comparative control.40 Animals were injected intracamerally with 10 μl of 35% India ink (Becton Dickinson, Cockeysville, Md.) in 0.01 M PBS after removing a similar volume of aqueous. At the end of the procedure, Tobrex ophthalmic ointment (tobramycin 0.3%; Alcon, Fort Worth, Tex.) was applied topically. Five days after intracameral injection of India ink, a dark band at the limbus was noted due to the aggregation of carbon particles in the trabecular meshwork.38 After anesthesia, approximately 200 laser burns were delivered ab externo to the pigmented trabecular band at laser settings of 200 μm diameter, 200 mW power and 0.2 seconds duration. Three weeks after the first laser treatment, another trabecular laser photocoagulation was performed without further injection of ink. […] A cross section of the optic nerve was made with the needle knife through the opening of the optic nerve sheath, with care not to damage the adjacent blood supply. DTMR crystals were applied to the proximal cut surface of the optic nerve to label RGCs by fast retrograde axonal transport. After euthanasia and enucleation, the retinas were dissected and flattened with four radial cuts (superotemporal, inferotemporal, superonasal, and inferonasal). They were placed with vitreal side up on glass slides, dried in the dark at room temperature overnight and mounted. The retinas were examined with a fluorescence microscope (Axioplan; Carl Zeiss, Oberkochen, Germany) equipped with a filter that permits visualization of rhodamine fluorescence (excitation filter BP 546, barrier filter LP590; Carl Zeiss). The counting of RGCs was conducted by 2 examiners in a masked fashion. […] Each rectangular area measured 0.475 mm×0.362 mm and the total counted area corresponded to approximately 3.1% of each total retinal area. Data are expressed as number of RGCs per mm2."}, "[2]": {"test_system": "TUNEL positive cells in the RGCL", "test": "TUNEL analysis of RGCL after 1 week of IOP elevation (Experiment 3)", "type": "in vivo, rat", "details": "elevated IOP retinas, 1 week; quercetin = co-administered with GGA", "quoted_text": "Experiment 3 was performed to investigate the inhibition of apoptosis with GGA administration after 1 week of IOP elevation (n=56).\nRats were anesthetized with intramuscular injections of 0.8 ml/kg of the anesthetic cocktail described above. […] At the end of the procedure, Tobrex ophthalmic ointment (tobramycin 0.3%; Alcon, Fort Worth, Tex.) was applied topically. Five days after intracameral injection of India ink, a dark band at the limbus was noted due to the aggregation of carbon particles in the trabecular meshwork.38 After anesthesia, approximately 200 laser burns were delivered ab externo to the pigmented trabecular band at laser settings of 200 μm diameter, 200 mW power and 0.2 seconds duration. Three weeks after the first laser treatment, another trabecular laser photocoagulation was performed without further injection of ink.\nFour-μm thick paraffin embedded sections along the vertical meridian of the optic nerve head were collected and a minimum of 6 retinal sections (8 μm apart) per eyeball was used for counting the number of TUNEL positive cells in the RGCL. Only full length and undamaged retinal sections without oblique orientation were used. The procedures described in the ApopTag Peroxidase In Situ Apoptosis Detection Kit (Intergen Co., Purchase, N.Y.) were followed and diaminobenzidine (Sigma, St. Louis, Mo.) was used as a color substrate. Counting was performed by two masked investigators with light microscopy, and averaged."}, "HSP72 [3]": {"test_system": "HSP72", "test": "Quantitative immunohistochemical analysis of HSP72 in the RGCL after 1 week of IOP elevation (Experiment 3)", "type": "in vivo, rat", "details": "quercetin = co-administered with GGA", "method": "TdT-mediated biotin-dUTP nick end labeling (TUNEL) and immunohistochemical analysis for HSP72 and HSC70 were performed.\nAnimals were deeply anesthetized with intramuscular injections of 0.8 ml/kg of a cocktail of 5 ml ketamine (100 mg/ml), 2.5 ml xylazine (20 mg/ml), 1.0 ml acepromazine (10 mg/ml), and 1.5 ml normal saline. Then they were transcardially perfused with 4% paraformaldehyde in 0.1 M phosphate buffer. The enucleated eyeballs were immersed in fixative for 1 hour, bisected and post-fixed overnight. The eyes were embedded in paraffin and sectioned at a four-μm thickness along the vertical meridian through the optic nerve head. After deparaffinization and hydration, a species-specific Vectastain ABC kit (Vector Laboratories, Inc., Burlingame, Calif.) was chosen to match the species of primary antibody and the manufacturer's procedures were followed. The tissue sections were incubated with blocking serum solution in PBS for 1 hour. This was followed by incubation with primary antibody at 4° C overnight. The antibodies were mouse monoclonal antibody against HSP72 (1:500; StressGen Biotechnologies Corp., Victoria, British Columbia, Canada), goat polyclonal antibody against HSP72 (1:1000; Santa Cruz Biotechnology, Inc., Santa Cruz, Calif.) or rat monoclonal antibody against HSC70 (1:200; StressGen). Antigen-antibody complexes were detected by an avidin-biotin-peroxidase technique (Vectastain ABC Kit; Vector Laboratories). Diaminobenzidine (DAB) was used to produce a brown color in the target tissue and the slides were permanently mounted. As a negative control, alternate retinal section was incubated with blocking solution by replacing the primary antibody or with anti-rabbit secondary antibody by replacing the original secondary antibody.\nImmunohistochemical staining was analyzed quantitatively with a computer-assisted image processing unit (Image-Pro Plus software, Media Cybernetics, Silver Spring, Md.) and the “count-measure” function. Images of immuno-stained sections were captured with a digital camera (Cool snap, RS Photometric, Tucson, Ariz.) attached to the microscope (Axio plan, Carl Zeiss, Oberkochen, Germany) at 630× magnification under oil immersion. The system was calibrated according to the supplier's manual before the analysis. For each digital image, all individual cells in the RGCL were marked by a masked examiner and the optical density of each cell was measured. The relative intensities of cells in the RGCL were measured and averaged (±SEM) to yield a single value representing one retina."}, "HSP72 [4]": {"test_system": "HSP72", "test": "Western blot for HSP72 in enriched RGC fraction after systemic administration of GGA (Experiment 1)", "type": "in vivo, rat", "details": "GGA 200 mg/kg co-administered with quercetin 4 mg/kg daily i.p., 7 days", "quoted_text": "Experiment 1 was performed to evaluate the expression of HSP72 and HSC70 in RGCs after systemic administration of GGA with Western blot analysis and immunohistochemistry. For Western blotting, twelve rats were equally divided into 6 groups. Three groups of animals were given intraperitoneal injections of GGA 200 mg/kg daily and were euthanized after 1-, 3- or 7 days of administration of GGA. Three control groups were intraperitoneally administered 1) saline-vehicle daily for 7 days; 2) GGA with 4 mg/kg of quercetin (Sigma, St. Louis, Mo.) daily for 7 days; and 3) untreated animals. Enriched RGC fraction was harvested from 2 retinas of each group and used for Western blot analysis. The same experiment for isolation of RGCs and Western blotting was repeated with the other 2 retinas-from each group.\nA solution of 80 mg/mL GGA was prepared in saline (Balanced salt solution; Alcon Laboratories, Inc., Fort Worth, Tex.) and emulsified for one hour in an ultrasonic generator (Branson Ultrasonic Corp., Danbury, Conn.) immediately before administration. Intraperitoneal injections of GGA were given at a dose of 200 mg/kg. Saline-vehicle was prepared and administered in the same fashion in vehicle-treated control groups.\nA previously described method was modified to partially purify RGCs from other retinal cells in rat retinas.38 Briefly, two dissected rat retinas from each subgroup were washed in 2.5 ml of calcium- and magnesium-free phosphate buffered saline (PBS) at pH 7.4, and incubated in 1.25 ml of PBS containing 0.5 mg/ml trypsin and 0.01% deoxyribonuclease for 15 minutes at 37° C. This was followed by washing the retinas twice in 2.5 ml of minimal essential medium (MEM) containing 10% (vol/vol) fetal bovine serum. The retinas were subsequently washed in 2.5 ml of MEM twice and dissociated in 3 ml of MEM. The cell suspension was then mixed with 1.5 ml of 30% metrizamide (ICN Biomedicals, Inc., Aurora, Ohio) in MEM to a final concentration of 10 metrizamide. This mixture was then overlaid with 5% metrizamide in MEM, and the gradient was centrifuged at 4500 rpm (HB-4; Sorvall Instruments, Newtown, Conn.) for 25 minutes at 4° C. The cells in the 5% to 10% interface were collected. and washed in 25 ml of cold MEM. The washed cells were pelleted by centrifugation at 250×g for 10 minutes (Juan 3000C centrifuge, Winchester, Va.). The cells were then resuspended in 400 μl of MEM buffer, and the protein concentration in the cell suspension was measured with a bicinchoninic acid (BCA) protein assay kit (Pierce, Rockford, Ill.).\nWestern blot analysis was performed according to the procedure described by Towbin et al.39 Aliquots of 20 μg of protein from enriched RGCs were separated on a 12% SDS-polyacrylamide minigel (Bio-Rad, Hercules, Calif.) and transferred to the membrane (Immunobilon-P; Millipore Corporation, Bedford, Mass.). The membrane was blocked by incubation in 0.1% Tween-20 in 100 mM Tris-buffered saline containing 10% nonfat dried milk for 1 hour. The membranes were incubated with mouse monoclonal antibody against HSP72 (1:1000; StressGen Biotechnologies Corp., Victoria, British Columbia, Canada) or with rat monoclonal antibody against HSC70 (1:1000; StressGen) overnight and then biotinylated rabbit anti-mouse secondary antibody (1:500; Amersham Pharmacia Biotech, Inc., Piscataway, N.J.) or biotinylated goat anti-rat secondary antibody (1:500; Amersham Pharmacia) for 1 hour. This was followed by incubation with streptavidin-conjugated horseradish peroxidase (1:2000; Amersham Pharmacia) for 40 minutes. The immunoreactive bands were detected by chemiluminescence with an enhanced chemiluminescence Western blot reagent (Amersham Pharmacia)."}},
  "note": "Entries after “also recorded” stand apart in the source; their conditions may differ.",
  "data": [
    {"compound": "OCC1OC(O)CC(O)C1O", "note": "[2DG, 2-deoxy-D-gluycose]", "values": [
      {"measurement": "protection of retinal ganglion cells", "setting": "retinal ganglion cells", "value": "ineffective"}
    ]},
    {"compound": "O=c1c(O)c(-c2ccc(O)c(O)c2)oc2cc(O)cc(O)c12", "note": "[quercetin]", "values": [
      {"measurement": "effect on density of DTMR-labeled RGCs (in words)", "setting": "[1]", "value": "abolished the protective effect"},
      {"measurement": "effect on number of TUNEL positive cells (in words)", "setting": "[2]", "value": "reversed"},
      {"measurement": "HSP72 expression (immunoreactive intensity) in the RGCL", "setting": "HSP72 [3]; control (normal IOP) retinas vs vehicle-alone controls", "value": "abolished; also recorded: diminished"},
      {"measurement": "HSP72 expression (immunoreactive intensity) in the RGCL", "setting": "HSP72 [3]; retinas with IOP elevation, 1 week", "value": "significantly reduced; also recorded: abolished"},
      {"measurement": "expression of HSP72 in RGCs (immunoblot)", "setting": "HSP72 [4]", "value": "inhibited"}
    ]}
  ]
}
